{"source": "paper PMC11684029", "about": "“Discovery of VU6024578/BI02982816: An mGlu1 Positive Allosteric Modulator with Efficacy in Preclinical Antipsychotic and Cognition Models” (Journal of Medicinal Chemistry, 2024)", "key": {"[1]": {"assay": "intrinsic clearance, predicted hepatic clearance", "type": "in vitro ADME, human", "details": "in vitro predicted hepatic clearance", "method": "Human or rat hepatic microsomes (0.5 mg/mL) and 1 μM test compound were incubated in 100 mM potassium phosphate pH 7.4 buffer with 3 mM MgCl2 at 37 °C with constant shaking. After a 5 min preincubation, the reaction was initiated by addition of NADPH (1 mM). At selected time intervals (0, 3, 7, 15, 25, and 45 min), aliquots were taken and subsequently placed into a 96-well plate containing cold acetonitrile with internal standard (50 ng/mL carbamazepine). Plates were then centrifuged at 3000 rcf (4 °C) for 10 min, and the supernatant was transferred to a separate 96-well plate and diluted 1:1 with water for LC/MS/MS analysis. The in vitro half-life (T1/2, min, eq 1), intrinsic clearance (CLint, mL/min/kg, eq 2) and subsequent predicted hepatic clearance (CLhep, mL/min/kg, eq 3) was determined employing the following equations: [drawing 2] 1 where k represents the slope from linear regression analysis of the natural log percent remaining of test compound as a function of incubation time [drawing 3] 2\n^ascale-up factors: of 20 (human) or 45 (rat) [drawing 4] 3 where Qh (hepatic blood flow, mL/min/kg) is 21 (human) or 70 (rat)."}, "rat mGlu1": {"target": "rat mGlu1 (Rattus norvegicus, UniProt P23385)", "sequence (P23385 19-1199)": "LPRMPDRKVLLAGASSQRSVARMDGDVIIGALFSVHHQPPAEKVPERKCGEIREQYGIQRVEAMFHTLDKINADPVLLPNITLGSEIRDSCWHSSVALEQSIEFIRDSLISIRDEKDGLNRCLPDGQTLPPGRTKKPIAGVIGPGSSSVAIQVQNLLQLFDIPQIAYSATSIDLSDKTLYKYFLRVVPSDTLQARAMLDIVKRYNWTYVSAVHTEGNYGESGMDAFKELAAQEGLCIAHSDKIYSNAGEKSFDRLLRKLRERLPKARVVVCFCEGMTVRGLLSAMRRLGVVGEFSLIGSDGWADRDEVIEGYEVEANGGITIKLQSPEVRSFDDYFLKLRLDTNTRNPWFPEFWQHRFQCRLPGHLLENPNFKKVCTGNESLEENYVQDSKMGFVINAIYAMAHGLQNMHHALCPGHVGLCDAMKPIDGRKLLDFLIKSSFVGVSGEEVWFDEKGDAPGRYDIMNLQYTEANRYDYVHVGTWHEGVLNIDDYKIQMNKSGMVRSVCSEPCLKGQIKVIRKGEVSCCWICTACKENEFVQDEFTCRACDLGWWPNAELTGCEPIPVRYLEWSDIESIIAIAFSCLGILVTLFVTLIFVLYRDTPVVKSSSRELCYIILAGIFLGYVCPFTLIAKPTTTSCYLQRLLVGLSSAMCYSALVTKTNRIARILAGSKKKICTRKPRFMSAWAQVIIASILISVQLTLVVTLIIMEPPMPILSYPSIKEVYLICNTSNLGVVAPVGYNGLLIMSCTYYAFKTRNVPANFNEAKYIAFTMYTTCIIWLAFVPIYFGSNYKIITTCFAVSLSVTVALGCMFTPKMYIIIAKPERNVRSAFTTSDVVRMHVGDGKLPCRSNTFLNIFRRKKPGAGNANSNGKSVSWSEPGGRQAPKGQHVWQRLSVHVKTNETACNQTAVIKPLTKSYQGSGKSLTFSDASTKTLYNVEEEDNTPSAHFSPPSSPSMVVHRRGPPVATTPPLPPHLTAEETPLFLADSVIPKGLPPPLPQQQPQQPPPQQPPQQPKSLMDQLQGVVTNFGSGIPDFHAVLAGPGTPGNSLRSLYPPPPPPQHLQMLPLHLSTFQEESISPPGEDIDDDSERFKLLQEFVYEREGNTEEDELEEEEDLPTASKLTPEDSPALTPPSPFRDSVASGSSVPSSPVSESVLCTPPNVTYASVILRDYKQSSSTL", "assay": "mGlu1 calcium mobilization PAM assay", "type": "cell-based"}, "IV dog PK": {"assay": "IV dog PK", "type": "in vivo", "details": "0.5 mg/kg IV; for C0: plasma", "method": "Deeper profiling began with IV dog PK (0.5 mg/kg, n = 3 male beagles). […] Was this a mechanism-based toxicity in dog? Could there be dog-specific pharmacology of mGlu1 activation? Were these AEs derived from the 19d chemotype? Could a mGlu1/mGlu5 heterodimer be responsible for the observed AEs? […] In an attempt to address the chemotype question, we evaluated PAM 4 (VU6004909),[8] an early generation rodent in vivo tool compound, for the first time in dog PK. […] of the study with 19d, PAM 4 produced no AEs in dog. […] Therefore, more molecular pharmacology and PK studies as well as additional chemically distinct mGlu1 PAM chemotypes are required to understand the AEs elicited by an mGlu1 PAM in dogs, an otherwise very promising target for the treatment of schizophrenia."}, "[2]": {"assay": "solubility (kinetic, FaSSIF, FaSSGF)", "type": "physicochemical", "method": "Over the course of the mGlu1 PAM program, 19d became an assay standard and was assayed multiple times, affording refined potency values.[20]"}, "3A4": {"target": "3A4 (Homo sapiens, UniProt P08684)", "sequence (P08684 whole entry)": "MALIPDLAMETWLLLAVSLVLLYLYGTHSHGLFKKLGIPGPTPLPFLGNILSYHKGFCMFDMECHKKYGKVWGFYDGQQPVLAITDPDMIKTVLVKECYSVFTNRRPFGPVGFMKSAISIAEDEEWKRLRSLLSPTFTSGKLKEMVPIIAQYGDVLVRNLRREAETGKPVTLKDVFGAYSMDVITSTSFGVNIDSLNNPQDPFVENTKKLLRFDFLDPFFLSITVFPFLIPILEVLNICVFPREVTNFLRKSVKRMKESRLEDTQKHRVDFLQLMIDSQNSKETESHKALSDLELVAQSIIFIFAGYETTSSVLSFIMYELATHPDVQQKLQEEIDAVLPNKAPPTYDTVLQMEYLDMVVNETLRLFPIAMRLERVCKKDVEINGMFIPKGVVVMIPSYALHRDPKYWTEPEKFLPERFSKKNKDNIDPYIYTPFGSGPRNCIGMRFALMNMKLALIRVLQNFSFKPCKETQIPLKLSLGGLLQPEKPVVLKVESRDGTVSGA", "assay": "inhibition of cytochrome P450 enzymes", "type": "in vitro ADME", "parameters": "0.1 mg/mL human liver microsomes (HLM) and Substrate Mix; from tissue; host or cells: human liver microsomes", "details": "human liver microsomes; read-out: CYP450 3A4 inhibition", "method": "A cocktail of substrates for cytochrome P450 enzymes (1A2: Phenacetin, 10 μM; 2C9: Diclofenac, 5 μM; 2D6: Dextromethorphan, 5 μM; 3A4: Midazolam, 2 μM) were mixed for cocktail analysis. For P450 2C19, the substrate stock (Mephenytoin, 40 μM)and substrate mix were prepared separately for discrete analysis. The positive control for pan-P450 inhibition (miconazole) was included alongside each test compound in analysis.\nA reaction mixture of 100 mM Kpi, pH 7.4, 0.1 mg/mL human liver microsomes (HLM) and Substrate Mix is prepared and aliquoted into a 96-deepwell block. Test compound and positive control (in duplicate) were then added such that the final concentration of test compound ranged from 0.1–30 μM. […]\nSamples were analyzed via electrospray ionization (ESI) on an AB Sciex API-4000 (Foster City, CA) triple-quadrupole instrument that was coupled with Shimadzu LC-10AD pumps (Columbia, MD) and a Leap Technologies CTC PAL autosampler (Carrboro, NC). […]\nThe IC50 values for each compound were obtained for the individual CYP enzymes by quantitating the inhibition of metabolite formation for each probe substrate. A 0 μM compound condition (or control) was set to 100% enzymatic activity and the effect of increasing test compound concentrations on enzymatic activity could then be calculated from the % of control activity. […]"}, "[3]": {"assay": "glutathione trapping of reactive intermediates", "type": "in vitro ADME", "method": "Across species, 19d had acceptable fraction unbound in both plasma (fu (plasma): 0.03 (human), 0.041 (rat), 0.025 (cyno), 0.039 (dog) and 0.056 (mouse)) and brain (fu (brain): 0.034 (rat) and 0.081 (mouse)).\nIn Vitro Glutathione Conjugates of 19d\nFigure S1. 19d was incubated in rat and human liver microsomes for 1 hr (with and without\nNADPH) with 20 µM glutathione.\nconjugates, most likely due to reactive intermediate formation from the 2-furanyl southern […]"}}, "note": "Several values for one entry are separate records, joined by “and”; a condition that tells them apart may be missing. Equal values may be shown once. Entries after “also recorded” stand apart in the source; their conditions may differ. Read-outs that look alike come from different tables or passages of the source.", "data": [{"molecule": "Cn1nc(-c2ccnn2C)cc1CNC(=O)c1cc(-c2ccco2)ccc1Cl", "note": "[Compound 19d, 2-Chloro-N-((1,2′-dimethyl-1H,2’H-[3,3′-bipyrazol]-5-yl)methyl)-5-(furan-2-yl)benzamide]", "values": [{"measurement": "CLhep, human", "setting": "[1]", "value": "16 mL/min/kg and 15.8 mL/min/kg"}, {"measurement": "EC50", "setting": "rat mGlu1; PAM, calcium flux", "value": 46, "unit": "nM"}, {"measurement": "rat mGlu1 Glumax", "setting": "rat mGlu1; PAM, calcium flux", "value": 124, "unit": "%"}, {"measurement": "rat mGlu1 pEC50", "setting": "rat mGlu1; n = 110", "value": "7.39 ± 0.02"}, {"measurement": "CLp", "setting": "IV dog PK", "value": 5.4, "unit": "mL/min/kg"}, {"measurement": "Vss", "setting": "IV dog PK", "value": 0.92, "unit": "L/kg"}, {"measurement": "t1/2", "setting": "IV dog PK", "value": 3.6, "unit": "h"}, {"measurement": "C0", "setting": "IV dog PK; read-out: C0 exposure, total", "value": 2050, "unit": "nM"}, {"measurement": "C0", "setting": "IV dog PK; male, beagle, iv, 0.5 mg/kg, read-out: C0 exposure, unbound", "value": 80, "unit": "nM"}, {"measurement": "solubility", "setting": "[2]; FaSSGF, fassgf or other biorelevant, read-out: FaSSGF solubility", "value": 2.5, "unit": "µM"}, {"measurement": "solubility", "setting": "[2]; FaSSIF, read-out: FaSSIF solubility", "value": 2.5, "unit": "µM"}, {"measurement": "solubility kinetic", "setting": "[2]; pH 7.4, aqueous buffer, kinetic from dmso stock", "value": 4.1, "unit": "µM"}, {"measurement": "IC50", "setting": "3A4", "value": 22, "unit": "µM"}, {"measurement": "glutathione conjugates", "setting": "[3]; human liver microsomes with glutathione", "value": "multiple glutathione; also recorded: a number of minor glutathione conjugates with four involving the furanyl ring"}, {"measurement": "glutathione conjugates", "setting": "[3]; rat liver microsomes with glutathione", "value": "multiple glutathione; also recorded: a number of minor glutathione conjugates with four involving the furanyl ring"}]}]}
